Read-outs that look alike come from different tables or passages of the source.
What was measured:
[1] = test system: P. falciparum 3D7 parasites; test: P. falciparum growth inhibition assay, 1-cycle (72 h treatment), SYBR DNA staining (library screen at 2 μg/mL and dose-response); format: cell-based, Plasmodium falciparum; conditions: for activity at 2 µg/mL: Plasmodium falciparum
[2] = test system: P. falciparum 3D7 parasites; test: P. falciparum growth inhibition assay, 2-cycle (120 h treatment), delayed-death screen and dose-response; format: cell-based, Plasmodium falciparum; conditions: for activity at 2 µg/mL: Plasmodium falciparum
[3] = test system: T. gondii RH strain (RH-Tub-eYFP) tachyzoites; test: microbe, parasite or virus in culture; format: cell-based, Toxoplasma gondii; conditions: 72 h; for percent parasite growth at 2 µg/mL: Toxoplasma gondii
[4] = library screen at 2 μg/mL, 72 h, % growth, replicate 1
[5] = library screen at 2 μg/mL, 72 h, % growth, replicate 2
[6] = library screen at 2 μg/mL, 120 h, % growth, replicate 1
[7] = library screen at 2 μg/mL, 120 h, % growth, replicate 2
[8] = library screen at 2 μg/mL, % growth, replicate 1
[9] = library screen at 2 μg/mL, % growth, replicate 2
[10] = P. falciparum 3D7, 72 h, parasite screen at 2 μg/mL, % growth, replicate 1
[11] = P. falciparum 3D7, 72 h, parasite screen at 2 μg/mL, % growth, replicate 2
[12] = P. falciparum 3D7, 120 h, parasite screen at 2 μg/mL, % growth, replicate 1
[13] = P. falciparum 3D7, 120 h, parasite screen at 2 μg/mL, % growth, replicate 2
[14] = T. gondii, parasite screen at 2 μg/mL, % growth, replicate 1
[15] = T. gondii, parasite screen at 2 μg/mL, % growth, replicate 2
[16] = T. gondii, parasite screen 2 μg/mL, % growth, replicate 1, read-out: Tg_72h_%Growth_Rep1
[17] = T. gondii, parasite screen 2 μg/mL, % growth, replicate 2, read-out: Tg_72h_%Growth_Rep2

## CC(CCCCCCCCCCCCCCOC1OC(CO)C(O)C(O)C1O)C(O)=C1C(=O)C(C)N(C)C1=O (stereo not drawn) [Epicoccamide]
[1]; [4]
  Pf_72h_%Growth_Rep1: 87.59%
[1]; [5]
  Pf_72h_%Growth_Rep2: 88.25%
[2]; [6]
  Pf_120h_%Growth_Rep1: 94.92%
[2]; [7]
  Pf_120h_%Growth_Rep2: 97.01%
[3]; [8]
  Tg_72h_%Growth_Rep1: 135.91%
[3]; [9]
  Tg_72h_%Growth_Rep2: 106.99%

## O=C(O)CC[N+](=O)[O-] [BIA-N1694]
[1]; [10]
  Pf_72h_%Growth_Rep1: 75.60%
[1]; [11]
  Pf_72h_%Growth_Rep2: 92.27%
[2]; [12]
  Pf_120h_%Growth_Rep1: 78.14%
[2]; [13]
  Pf_120h_%Growth_Rep2: 7.96%
[3]; [14]
  Tg_72h_%Growth_Rep1: 133.03%
[3]; [15]
  Tg_72h_%Growth_Rep2: 105.32%

## CC1(C)CCC[C@]2(C)[C@@H](C=O)C(C=O)=CC[C@@H]12 [Polygodial]
[1]; 3D7, P. falciparum, 72 h, parasite screen 2 μg/mL, % growth, replicate 1, read-out: Pf_72h_%Growth_Rep1
  activity at 2 µg/mL: 1.12%
[1]; 3D7, P. falciparum, 72 h, parasite screen 2 μg/mL, % growth, replicate 2, read-out: Pf_72h_%Growth_Rep2
  activity at 2 µg/mL: -3.71%
[2]; 3D7, P. falciparum, 120 h, parasite screen 2 μg/mL, % growth, replicate 1, read-out: Pf_120h_%Growth_Rep1
  activity at 2 µg/mL: 6.02%
[2]; 3D7, P. falciparum, 120 h, parasite screen 2 μg/mL, % growth, replicate 2, read-out: Pf_120h_%Growth_Rep2
  activity at 2 µg/mL: 28.5%
[3]; [16]
  percent parasite growth at 2 µg/mL: 101%
[3]; [17]
  percent parasite growth at 2 µg/mL: 101%

## CCC1(C2OC(C3OC(O)(CO)C(C)CC3C)CC2C)CCC(C2(C)CCC3(CC(O)C(C)C(C(C)C(OC)C(C)C(=O)O)O3)O2)O1 (stereo not drawn) [BIA-M1303]
[1]; [10]
  Pf_72h_%Growth_Rep1: 1.29%
[1]; [11]
  Pf_72h_%Growth_Rep2: -3.52%
[2]; [12]
  Pf_120h_%Growth_Rep1: 3.05%
[2]; [13]
  Pf_120h_%Growth_Rep2: 14.66%
[3]; [14]
  Tg_72h_%Growth_Rep1: 1.84%
[3]; [15]
  Tg_72h_%Growth_Rep2: 2.05%

## CC(C)=CCc1cc(C=C2OC(=O)C(c3cc(CC=C(C)C)c(O)cc3O)=C2O)ccc1O [Aspulvinone O]
[1]; [4]
  Pf_72h_%Growth_Rep1: 82.88%
[1]; [5]
  Pf_72h_%Growth_Rep2: 86.74%
[2]; [6]
  Pf_120h_%Growth_Rep1: 144.60%
[2]; [7]
  Pf_120h_%Growth_Rep2: 98.61%
[3]; [8]
  Tg_72h_%Growth_Rep1: 90.15%
[3]; [9]
  Tg_72h_%Growth_Rep2: 99.19%

## Cc1cc(O)c2c3c4c(cc(O)c13)C(C)(C)C(=O)c1c(O)cc(O)c(c1-4)C2=O [Resistomycin]
[1]; 3D7, 72 h, P. falciparum, 72 h, parasite screen 2 μg/mL, % growth, replicate 1, read-out: Pf_72h_%Growth_Rep1
  activity at 2 µg/mL: 82%
[1]; 3D7, 72 h, P. falciparum, 72 h, parasite screen 2 μg/mL, % growth, replicate 2, read-out: Pf_72h_%Growth_Rep2
  activity at 2 µg/mL: 102%
[2]; 3D7, 120 h, P. falciparum, 120 h, parasite screen 2 μg/mL, % growth, replicate 1, read-out: Pf_120h_%Growth_Rep1
  activity at 2 µg/mL: 78.2%
[2]; 3D7, 120 h, P. falciparum, 120 h, parasite screen 2 μg/mL, % growth, replicate 2, read-out: Pf_120h_%Growth_Rep2
  activity at 2 µg/mL: 130%
[3]; [16]
  percent parasite growth at 2 µg/mL: 221%
[3]; [17]
  percent parasite growth at 2 µg/mL: 125%

## CC[C@H](C)[C@H]1C(=O)O[C@H](C(C)C)C(=O)N(C)[C@@H](C(C)C)C(=O)O[C@H](C(C)C)C(=O)N(C)[C@@H](C(C)C)C(=O)O[C@H](C(C)C)C(=O)N1C [Enniatin B1]
[1]; 3D7, library screen at 2 μg/mL, 72 h, % growth, replicate 1, read-out: Pf_72h_%Growth_Rep1
  activity at 2 µg/mL: 4.56%
[1]; 3D7, library screen at 2 μg/mL, 72 h, % growth, replicate 2, read-out: Pf_72h_%Growth_Rep2
  activity at 2 µg/mL: 3.05%
[2]; 3D7, library screen at 2 μg/mL, 120 h, % growth, replicate 1, read-out: Pf_120h_%Growth_Rep1
  activity at 2 µg/mL: 5.98%
[2]; 3D7, library screen at 2 μg/mL, 120 h, % growth, replicate 2, read-out: Pf_120h_%Growth_Rep2
  activity at 2 µg/mL: 9.66%
[3]; library screen at 2 μg/mL, % growth, replicate 1, read-out: Tg_72h_%Growth_Rep1
  percent parasite growth at 2 µg/mL: 0.26%
[3]; library screen at 2 μg/mL, % growth, replicate 2, read-out: Tg_72h_%Growth_Rep2
  percent parasite growth at 2 µg/mL: 25.7%

## COc1c(OC)c(-c2c[nH]c3ccccc23)c(OC)c(OC)c1-c1c[nH]c2ccccc12 [Asterriquinol D dimethylether]
[1]; [4]
  Pf_72h_%Growth_Rep1: 80.59%
[1]; [5]
  Pf_72h_%Growth_Rep2: 80.67%
[2]; [6]
  Pf_120h_%Growth_Rep1: 55.71%
[2]; [7]
  Pf_120h_%Growth_Rep2: 80.70%
[3]; [8]
  Tg_72h_%Growth_Rep1: 135.53%
[3]; [9]
  Tg_72h_%Growth_Rep2: 89.90%

## Bafilomycin D
[1]; [4]
  Pf_72h_%Growth_Rep1: 3.99%
[1]; [5]
  Pf_72h_%Growth_Rep2: 4.20%
[2]; [6]
  Pf_120h_%Growth_Rep1: 2.60%
[2]; [7]
  Pf_120h_%Growth_Rep2: -8.55%
[3]; [8]
  Tg_72h_%Growth_Rep1: 0.37%
[3]; [9]
  Tg_72h_%Growth_Rep2: -0.37%

## Nc1cc2nc3ccccc3oc-2cc1=O [Questiomycin A]
[1]; P. falciparum, 72 h, parasite screen 2 μg/mL, % growth, replicate 1
  Pf_72h_%Growth_Rep1: 72.04%
[1]; P. falciparum, 72 h, parasite screen 2 μg/mL, % growth, replicate 2
  Pf_72h_%Growth_Rep2: 68.55%
[2]; P. falciparum, 120 h, parasite screen 2 μg/mL, % growth, replicate 1
  Pf_120h_%Growth_Rep1: 44.88%
[2]; P. falciparum, 120 h, parasite screen 2 μg/mL, % growth, replicate 2
  Pf_120h_%Growth_Rep2: 66.03%
[3]; T. gondii, parasite screen 2 μg/mL, % growth, replicate 1
  Tg_72h_%Growth_Rep1: 83.12%
[3]; T. gondii, parasite screen 2 μg/mL, % growth, replicate 2
  Tg_72h_%Growth_Rep2: 77.23%

## C=C1NC(=O)[C@H](C(C)C)NC1=O [Cyclo(delta-Ala-L-Val)]
[1]; P. falciparum, 72 h, screen at 2 μg/mL, replicate 1
  Pf_72h_%Growth_Rep1: 78.49%
[1]; P. falciparum, 72 h, screen at 2 μg/mL, replicate 2
  Pf_72h_%Growth_Rep2: 81.94%
[2]; P. falciparum, 120 h, screen at 2 μg/mL, replicate 1
  Pf_120h_%Growth_Rep1: 80.27%
[2]; P. falciparum, 120 h, screen at 2 μg/mL, replicate 2
  Pf_120h_%Growth_Rep2: 78.77%
[3]; T. gondii, screen at 2 μg/mL, replicate 1
  Tg_72h_%Growth_Rep1: 112.17%
[3]; T. gondii, screen at 2 μg/mL, replicate 2
  Tg_72h_%Growth_Rep2: 87.98%

## COc1ccc2c(c1)C(=O)NC(Cc1ccccc1)C(=O)NCCC(=O)N1CCCC1C(=O)N2 (stereo not drawn) [Aspercolorin]
[1]; [4]
  Pf_72h_%Growth_Rep1: 96.39%
[1]; [5]
  Pf_72h_%Growth_Rep2: 82.46%
[2]; [6]
  Pf_120h_%Growth_Rep1: 146.59%
[2]; [7]
  Pf_120h_%Growth_Rep2: 102.81%
[3]; [8]
  Tg_72h_%Growth_Rep1: 77.01%
[3]; [9]
  Tg_72h_%Growth_Rep2: 95.41%

— paper PMC12396409, “Screening and hit evaluation of a microbial metabolite library against the pathogenic Plasmodium falciparum and Toxoplasma gondii parasites” (International Journal for Parasitology: Drugs and Drug …, 2025)
